Results on two molecules are retold here after patent publication US7129036B1, “Reporter molecules and methods for assaying the lipidations status of a cell” (Tibotec BVBA, priority 1999, dated 2006).

Molecules are shown by their SMILES. Entries after “also recorded” stand apart in the source; their conditions may differ.

Type in all cases: cell-based
Assay [1] deals with T1, farnesyl transferase (Homo sapiens, UniProt P49354+P49356).
T1 construct: endogenous in cells; host or cells: K562 cells transduced with LNC-EGFP-RasF reporter
In words: Farnesyl transferase inhibition assay (EGFP-RasF membrane localization by fluorescence microscopy). As for the experimental part: The idea was to target EGFP to the plasma membrane by using a farnesylation signal sequence. […] The last 20 amino acids of c-Ha-Ras provides farnesylation and palmitoylation for targeting the Ras protein to the plasma membrane. We fused the C-terminal membrane targeting signal sequence of the human c-Ha-ras1 (J00277, NCBI) to the C-terminal end of EGFP (Clontech).
Twenty amino acids of the C-terminal end of c-Ha-ras 1 located in exon 4 were added to the C-terminus of the EGFP coding sequence by polymerase chain reaction (PCR) cloning.
The amphotropic packaging cell line PT67 (Clontech) was transfected (Pfx-2, Invitrogen) with pLNC-EGFP-(DEVD)-RasF and selected in 400 μg/ml G418. […] Gene transfer referred to as transduction in K562 and MT4 cells was easily observed by fluorescence microscopy.
(§1) K562 (MT4) cells were separated from PT67-pLNC-EGFP-(DEVD)-RasF and Non transduced K562 (MT4) cells were removed by selection in 400 μg/ml G418. The remaining fluorescent K562 (MT4) cells were directly cloned in 96 well plates by fluorescence activated cell sorting using an automatic cell deposit unit. […] Two weeks later, appropriate clones were selected by visual inspection using a fluorescence microscope and designated K562-LNC-EGFP-RasF or MT4-LNC-EGFP-(DEVD)-RasF. […]
In cells expressing EGFP without a farnesylation signal sequence, fluorescence is observed throughout the cell. […]

Assay [2] concerns caspase 3 and/or caspase 7. In words: Caspase assay (EGFP-DEVD-RasF membrane targeting by fluorescence microscopy). The settings on record: MT4-LNC-EGFP-DEVD-RasF cells, 10 μM, 4 h, FIG. 3B. On the procedure: For the apoptosis construct, the same primer was used except that a sequence encoding DEVD (i.e. caspase 3 and 7 cleavage site) was included between EGFP and the Ras plasmamembrane targeting signal sequence (SEQ ID NO 4 and SEQ ID NO 5).
(§2) The amphotropic packaging cell line PT67 (Clontech) was transfected (Pfx-2, Invitrogen) with pLNC-EGFP-(DEVD)-RasF and selected in 400 μg/ml G418. In the surviving colonies, transcription occurs from (a) stably integrated plasmid(s) pLNC-EGFP-(DEVD)RasF. The resulting LNC-EGFP-(DEVD)-RasF mRNA is translated into EGFP-(DEVD)-RasF and the neomycin resistance protein and is also packaged into replication incompetent virions. […] Gene transfer referred to as transduction in K562 and MT4 cells was easily observed by fluorescence microscopy.
as §1

For assay [3], the system named is MT4-LNC-EGFP-RasF cells. The experiment in a line: Control without DEVD cleavage site (EGFP-RasF membrane targeting by fluorescence microscopy). Particulars: 4 h, FIG. 4B. On the procedure:
as §2, with “virions. Thus, the PT67-pLNC-EGFP-(DEVD)-RasF constitutively produces viral particles, able to transmit the EGFP-(DEVD)-RasF and the neomycin resistance gene at the same time. These amphotropic virions give the flexibility to rapidly develop novel cell lines stably expressing EGFP-(DEVD)-RasF proteins.” for “virions.”
as §1

For assay [4], the system named is caspase 3. In words: Caspase 3 activity with fluorogenic Ac-DEVD-AMC substrate. The settings on record: MT4 cells, Ac(N-acetyl)-DEVD-AMC substrate, results not shown.

Take `CSCC[C@H](NC(=O)c1ccc(NC[C@@H](N)CS)cc1-c1ccccc1)C(=O)O` [FTI-276]: the EGFP membrane localization entry in assay [1] (K562 LNC-EGFP-RasF cells, 5 μM, FIG. 2) is given as “disruption of membrane localization”. The EGFP compartmentalisation entry in assay [1] (K562 cells, high enough concentrations (>5 μM)) was “almost completely disappears”.
As to `CN[C@@H]1C[C@H]2O[C@@](C)([C@@H]1OC)n1c3ccccc3c3c4c(c5c6ccccc6n2c5c31)C(=O)NC4` [staurosporin], the EGFP membrane targeting result in assay [2] is “partially disappears; also recorded: reduced EGFP membrane targeting”. Moreover, the “translocation of EGFP” value in assay [3] (MT4-LNC-EGFP-RasF cells lacking DEVD site) is “no prominent translocation of EGFP occurs; also recorded: did not result in marked translocation of EGFP”. Further, the cell morphology result in assay [3] (MT4-LNC-EGFP-RasF cells) is listed as “affects the cells morphology within hours; also recorded: altered cell morphology”. Further, the “caspase 3 activity” value in assay [4] is “induced caspase 3 activity”.
